Measurements reported in the NIST ThermoML archive (doi:10.1021/acs.jced.8b00372).
Numbers after ± are expanded uncertainties.

Conditions: 313.15 K, Ring tensiometer

For O [water], which surface tension liquid-gas is on record?
The surface tension liquid-gas was 67.2 ± 2.8 mN/m.
